According to patent US20260102377A1, “COMPOSITIONS AND METHODS FOR TREATING MYASTHENIA GRAVIS” (priority 2022, published 2026):
Entries after “also recorded” stand apart in the source; their conditions may differ.

Assays:
EAMG rats = test: Force and EMG in sedated EAMG animals (triceps surae, sciatic nerve stimulation); type: in vivo, rat
EAMG muscle fibres = test: Intracellular action potential measurement during nerve stimulation; type: cell-based, rat; details: 20 μM NMD670; 30 Hz nerve stimulation; EAMG muscle fibres (n=110)
Description: (§1) To allow for measurements of electrophysiological properties at the cellular level and for measurements of force, it was necessary to isolate nerve-muscle preparations from the rats. To this end, animals were sacrificed, and muscles were dissected out with 1 to 3 cm of intact nerve. The nerve-muscle preparations were then transferred to the organ baths used for the particular experiments (see below) and perfused with Normal Krebs-Ringer (NKR) solution, consisting of (in mM); 122 NaCl, 25 NaHCO3, 2.8 KCl, 1.2 KH2PO4, 1.2 MgSO4 1.27 CaCl2 and 5 D-glucose. This NKR solution was continuously gassed with a mixture of 95% oxygen and 5% CO2, to maintain a pH of approx. 7.4. In some experiments methyl-sulphate was used to replace Cl^− in the solution. All chemicals used were of analytical grade.

[1] = system: soleus muscle fibres from healthy and EAMG rats; test: Rheobase current (muscle fibre excitability) in soleus muscle fibres; type: cell-based, rat; details: 20 μM NMD670; soleus muscle fibres from healthy (n=20) and EAMG (n=12) rats, before vs after addition
Description: as §1

[2] = system: muscle fibres from EAMG rats; test: Endplate potentials (EPP) in isolated nerve-muscle preparations; type: cell-based, rat; details: 20 μM NMD670
Description: The effect of CIC-1 inhibition on neuromuscular transmission was investigated at the cellular level by recording endplate potentials (EPPs) with intracellular electrodes in isolated nerve-muscle preparations from healthy and EAMG rats (score 0-2). Muscle preparations used in the experiments were diaphragm or levator longus auris (LAL) providing the advantage to dissect out 1-3 cm of intact motor nerve. After dissection, preparations were immediately mounted in a chamber perfused with NKR at a temperature of 30-31° C., pH 7.4-7.5. […]

CIC-1 = biological target: T1, CIC-1 (Rattus norvegicus, UniProt P35524); test: Resting membrane conductance (Gm) in muscle fibres of isolated nerve-muscle preparations; type: cell-based
T1 construct: from tissue; host or cells: soleus or diaphragm muscle of healthy and EAMG Lewis rats
T1 sequence (P35524 1-994): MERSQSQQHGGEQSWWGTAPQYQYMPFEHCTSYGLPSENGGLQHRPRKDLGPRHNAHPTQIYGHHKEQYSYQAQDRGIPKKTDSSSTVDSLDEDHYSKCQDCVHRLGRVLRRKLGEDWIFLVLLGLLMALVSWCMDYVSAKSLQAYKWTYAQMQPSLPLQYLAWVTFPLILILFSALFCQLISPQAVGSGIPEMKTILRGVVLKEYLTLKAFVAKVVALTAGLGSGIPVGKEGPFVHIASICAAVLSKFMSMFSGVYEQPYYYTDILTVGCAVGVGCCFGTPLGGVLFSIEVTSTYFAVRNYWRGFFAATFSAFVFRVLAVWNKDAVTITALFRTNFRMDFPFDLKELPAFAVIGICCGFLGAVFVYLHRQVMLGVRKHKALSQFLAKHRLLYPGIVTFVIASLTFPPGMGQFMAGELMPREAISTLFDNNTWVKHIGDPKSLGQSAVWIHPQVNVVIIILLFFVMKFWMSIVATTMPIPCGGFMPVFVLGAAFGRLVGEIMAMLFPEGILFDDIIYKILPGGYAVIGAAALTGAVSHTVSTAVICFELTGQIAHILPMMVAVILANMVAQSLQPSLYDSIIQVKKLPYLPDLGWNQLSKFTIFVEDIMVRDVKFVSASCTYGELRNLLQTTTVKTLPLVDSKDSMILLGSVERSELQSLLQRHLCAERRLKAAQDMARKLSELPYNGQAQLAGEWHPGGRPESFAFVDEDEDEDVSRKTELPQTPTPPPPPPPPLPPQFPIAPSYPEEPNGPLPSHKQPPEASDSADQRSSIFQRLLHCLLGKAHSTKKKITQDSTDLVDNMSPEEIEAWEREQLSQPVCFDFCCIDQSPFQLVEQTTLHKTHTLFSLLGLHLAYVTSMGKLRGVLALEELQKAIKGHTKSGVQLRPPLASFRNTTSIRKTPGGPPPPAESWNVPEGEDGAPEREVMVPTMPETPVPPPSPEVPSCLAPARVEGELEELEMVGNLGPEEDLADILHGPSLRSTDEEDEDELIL
Description: as §1

[3] = system: patients with myasthenia gravis; test: Phase IIA clinical trial (Part C): Quantitative Myasthenia Gravis test; type: in vivo, human
Procedure: For each subject, the study consisted of three study periods during which subjects received either a single dose of NMD670 400 mg, NMD670 1200 mg, or placebo with a 7-day washout period between visits. On these study visits, subjects were asked to refrain from their regular dose of pyridostigmine (if applicable) from 14 h before dosing until after the last pharmacodynamic measurement on Day 1 (see Table 13: Visit and Assessment Schedule). The cross-over design allowed intra-individual comparison of drug effects versus placebo (see FIG. 16). A balanced design was applied to control for first-order carry-over effects.
Part C was a double-blinded, placebo-controlled, three-way cross-over comparison of two single oral doses of NMD670 in men and women with stable symptomatic myasthenia gravis. 12 patients were enrolled. For each subject, the study consisted of three study periods during which subjects received either a single dose of NMD670 or placebo. On these study visits, subjects were asked to refrain from their regular dose of pyridostigmine (if applicable) for 14 hours before dosing. Single doses were administered in randomized order (400 mg free acid, 1200 mg free acid, or placebo p.o.), with a 7-day washout period between visits (FIG. 16). NMD670/placebo was administered with 240 ml of still water.
The Quantitative Myasthenia Gravis (QMG) total score (Barohn et al., Ann N YAcad Sci 1998, 841:769-72) is a validated clinical measure of sentinel muscle groups developed by the Myasthenia Gravis Foundation of America and the current clinical gold standard recommended for all prospective studies in MG. The QMG test is a physician-rated test using 13 assessments (see table 1), including facial strength, swallowing, respiratory, grip strength, and duration of time that limbs can be maintained in outstretched positions. Each of the 13 items is scored from 0 (none) to 3 (severe).
The total score can range from 0 to 39.

[4] = 400 mg group, 3-hour measurements
[5] = 1200 mg group, 3- and 5-hour measurements
[6] = single doses, 12 patients with MG

C[C@H](Oc1ccc(Br)cc1-c1ccon1)C(=O)O [NMD670, (2S)-2-[4-bromo-2-(1,2-oxazol-3-yl)phenoxy]propanoic acid]
Nerve-stimulated force and EMG amplitude in triceps surae (EAMG rats; EAMG rat score 2, 40 mg per kg, 20 minutes after administration, 80 Hz for 1 second): rapid restoration of force and EMG amplitude
Restoration of muscle force / EMG (EAMG rats; EAMG rats, single per oral doses from 2 to 120 mg/kg): rapid and dose-dependent restoration of muscle force; also recorded: rapid and dose-dependent restoration of both EMG and force
Success of repeated action potential excitations (EAMG muscle fibres): improved markedly; also recorded: AP excitation failures were less common
Rheobase current [1]: significantly reduced rheobase current
Endplate potential (EPP) in muscle fibres from EAMG rats vs healthy rats [2]: could be restored
Increase of endplate potential (EPP) amplitude ([2]; EAMG rats, throughout a 12 Hz train of 30 stimulations, 82 fibres vs 68 fibres without inhibitor): more than 35%
Membrane conductance (Gm) (CIC-1; 20 μM NMD670, rat soleus muscle from healthy (n=20) and EAMG (n=12) animals, before vs after addition): statistically significantly reduced Gm
Membrane conductance (Gm) in bathing solution free of Cl− (CIC-1; increasing concentration of NMD670, Cl−-free solution): did not reduced Gm
Patients achieving a 2-point or larger improvement in QMG total score [3, 4]: 6 of 12
QMG responder rate (2-point or larger improvement from baseline compared to placebo) [3, 4]: 50%
Patients achieving a 2-point or larger improvement in QMG total score ([3]; 400 mg group, 5-hour): 5 of 12
QMG responder rate (2-point or larger improvement from baseline compared to placebo) ([3]; 400 mg group, 5-hour): 42%
QMG total score, LSM change over placebo (given as positive improvement) ([3]; 400 mg treatment group, 3-hour timepoint, p=0.12): 1.3 points
QMG total score, Arithmetic Mean change (given as positive improvement) ([3]; 400 mg treatment group, 5-hour timepoint): 2.1 points
QMG total score, LSM change over placebo (given as positive improvement) ([3]; 400 mg treatment group, 5-hour timepoint, p=0.02): 1.7 points
QMG total score, CFB over placebo, Arithmetic mean ([3]; 400 mg versus placebo, 3-hour): −1.6 points
QMG total score, CFB over placebo, LSM ([3]; 400 mg versus placebo, 3-hour, p = 0.12): −1.2 points
QMG total score, CFB over placebo, Arithmetic mean ([3]; 400 mg versus placebo, 5-hour): −2.1 points
QMG total score, CFB over placebo, LSM ([3]; 400 mg versus placebo, 5-hour, p = 0.02): −1.7 points
QMG total score, CFB over placebo, LSM ([3]; 400 mg versus placebo, Overall, p = 0.03, single oral dose, 12 MG patients): −1.5 points
Patients achieving a 2-point or larger improvement in QMG total score [3, 5]: 5 of 12
QMG responder rate (2-point or larger improvement from baseline compared to placebo) [3, 5]: 42%
QMG total score, Least Mean Square change improvement from baseline over placebo ([3]; 1200 mg group, 3-hour timepoint): 0.9 points
QMG total score, Least Mean Square change improvement from baseline over placebo ([3]; 1200 mg group, 5-hour timepoint): 1.1 points
QMG total score, Least Mean Square change improvement from baseline over placebo ([3]; 1200 mg group, overall, non-statistically significant): 1.0 points
QMG total score, CFB over placebo, Arithmetic mean ([3]; 1200 mg versus placebo, 3-hour): −1.2 points
QMG total score, CFB over placebo, LSM ([3]; 1200 mg versus placebo, 3-hour, p = 0.25): −0.9 points
QMG total score, CFB over placebo, Arithmetic mean ([3]; 1200 mg versus placebo, 5-hour): −1.5 points
QMG total score, CFB over placebo, LSM ([3]; 1200 mg versus placebo, 5-hour, p = 0.14): −1.1 points
QMG total score, CFB over placebo, LSM ([3]; 1200 mg versus placebo, Overall, p = 0.14): −1 points
QMG individual items: double vision, ptosis and dysarthria compared to placebo ([3]; both 400 mg and 1200 mg doses, non-statistically significant): improved
Patients meeting responder criterion (QMG) [3, 6]: up to 50%
QMG total Score after single doses [3, 6]: clinically significant improvements
QMG total score, LSM change from baseline improvement over placebo (given as positive improvement) ([3]; worded 'the NMD670 treatment arms', p=0.03 (Table 17: 400 mg overall)): 1.5 points
